Measurements reported in patent US4683301A, “Carbapenem antibiotics” (Bristol-Myers Company, priority 1984, dated 1987).
≈ marks a conversion by molar mass, not a printed value. Like-named read-outs stand apart in the source and are kept apart here.

Experiments:
Pseudomonas species = conditions: in words; prior art; cited from earlier work
P. mirabilis A-9900 [1] = assay: Protective effect in the intramuscular treatment of infected mice; format: in vivo; conditions: Proteus mirabilis, A9900, im, read-out: PD50/Treatment
Protocol: The PD50 (dose in mg/kg required to give protection to 50% of the infected mice) is indicated.
Treatment Schedule: Mice were treated i.m. with drugs 0 and 2 hours

H. influenzae A21518 = assay: In vitro MIC, tube dilution in Nutrient Broth, overnight at 37° C.; format: cell-based; conditions: Haemophilus influenzae
[2] = system: S. aureus A15097 (Meth-res.); assay: microbe, parasite or virus in culture; format: cell-based; conditions: Staphylococcus aureus
P. morganii A15153 = assay: microbe, parasite or virus in culture; conditions: Morganella morganii
H. influenzae A21522 = assay: In vitro MIC, tube dilution in Nutrient Broth, overnight at 37° C.; format: cell-based; conditions: Haemophilus influenzae
S. pyogenes A-9604 = assay: as above; format: cell-based; conditions: Streptococcus pyogenes, A9604
[3] = Urinary recovery after intramuscular administration to mice; format: in vivo; conditions: mouse, urine, im, 20 mg/kg, 20 mg/kg i.m., read-out: Urinary recovery, Percentage of Dose Recovered
From the text: | a single test; 4 mice per compound.

S. marcescens A20335 = assay: Protective effect in the intramuscular treatment of infected mice; format: in vivo; conditions: Serratia marcescens, A20335, im; i.m., challenge 9 × 10^6 organisms, treated 1 and 3.5 h postinfection; read-out: PD50/Treatment
Protocol: (§1) 3.5 hours (all others); 5 mice were used in each test.

E. coli A15119 [4] = assay: as above; format: in vivo; conditions: Escherichia coli, A15119, im; i.m., challenge 6 × 10^6 organisms, treated 1 and 3.5 h postinfection; read-out: PD50/Treatment
Protocol: as §1

E. cloacae A-9659 [5] = assay: as above; format: in vivo; conditions: Enterobacter cloacae, A9659, im; i.m., challenge 4 × 10^6 organisms, treated 1 and 3.5 h postinfection; read-out: PD50/Treatment
Protocol: as §1

K. pneumoniae A-9664 [6] = assay: as above; format: in vivo; conditions: Klebsiella pneumoniae, A9664, im; i.m., challenge 7 × 10^6 organisms, treated 1 and 3.5 h postinfection; read-out: PD50/Treatment
Protocol: as §1

P. rettgeri A15167-2 = assay: as above; format: in vivo; conditions: Providencia rettgeri, A151672, im, read-out: PD50/Treatment
Protocol: as §1

M. morganii A15149 = assay: as above; format: in vivo; conditions: Morganella morganii, A15149, im; i.m., challenge 7 × 10^5 organisms, treated 1 and 3.5 h postinfection; read-out: PD50/Treatment
Protocol: as §1

P. vulgaris A21559 [7] = assay: as above; format: in vivo; conditions: Proteus vulgaris, A21559, im; i.m., challenge 4 × 10^5 organisms, treated 0 and 2 h postinfection; read-out: PD50/Treatment
Protocol: as §1

P. aeruginosa A20481 = assay: as above; format: in vivo; conditions: Pseudomonas aeruginosa, A20481, im; i.m., challenge 3 × 10^4 organisms, treated 0 and 2 h postinfection; read-out: PD50/Treatment
Protocol: as §1

P. aeruginosa A20599 = assay: as above; format: in vivo; conditions: Pseudomonas aeruginosa, A20599, im; i.m., challenge 9 × 10^4 organisms, treated 0 and 2 h postinfection; read-out: PD50/Treatment
Protocol: as §1

P. aeruginosa A-9843a [8] = assay: as above; format: in vivo; conditions: Pseudomonas aeruginosa, A9843A, im, challenge 3 × 10^4 organisms, treated 0 and 2 h postinfection; read-out: PD50/Treatment
Protocol: as §1

S. aureus A-9606 = assay: as above; format: in vivo; conditions: Staphylococcus aureus, A9606, im; i.m., challenge 1 × 10^9 organisms, treated 1 and 3.5 h postinfection; read-out: PD50/Treatment
Protocol: as §1

[9] = Toxicity after intracranial administration to mice; conditions: mouse, in vivo
B. fragilis A22053 = assay: microbe, parasite or virus in culture; conditions: Bacteroides fragilis
E. coli A20341-1 = assay: In vitro MIC, tube dilution in Nutrient Broth, overnight at 37° C.; format: cell-based
E. cloacae A-9659 [10] = assay: microbe, parasite or virus in culture; conditions: Enterobacter cloacae, A9659
S. pneumoniae A-9585 = assay: In vitro MIC, tube dilution in Nutrient Broth, overnight at 37° C.; format: cell-based; conditions: Streptococcus pneumoniae, A9585
[11] = Blood levels in mice after intramuscular administration; format: in vivo; conditions: mouse, im, 20 mg/kg i.m.
From the text: *t1/2refers to halflife in minutes
**AUC refers to the area under the curve

in vivo = conditions: mouse
H. influenzae A-9833 = assay: In vitro MIC, tube dilution in Nutrient Broth, overnight at 37° C.; format: cell-based; conditions: Haemophilus influenzae, A9833
H. influenzae A20178 = assay: as above; format: cell-based; conditions: Haemophilus influenzae
P. mirabilis A-9900 [12] = assay: microbe, parasite or virus in culture; conditions: Proteus mirabilis, A9900
K. pneumoniae A20468 = assay: microbe, parasite or virus in culture; conditions: Klebsiella pneumoniae
E. cloacae A-9656 = assay: microbe, parasite or virus in culture; conditions: Enterobacter cloacae, A9656
P. vulgaris A21559 [13] = assay: In vitro MIC, tube dilution in Nutrient Broth, overnight at 37° C.; format: cell-based; conditions: Proteus vulgaris
[14] = system: S. aureus A-9606 (Pen-res.); assay: as above; format: cell-based; conditions: Staphylococcus aureus
B. fragilis A22862 = assay: as above; format: cell-based; conditions: Bacteroides fragilis
S. marcescens A20019 = assay: microbe, parasite or virus in culture; conditions: Serratia marcescens
P. aeruginosa A-9843A [15] = assay: In vitro MIC, tube dilution in Nutrient Broth, overnight at 37° C.; format: cell-based; conditions: Pseudomonas aeruginosa, A9843A
S. faecalis A20688 = assay: as above; format: cell-based; conditions: Enterococcus faecalis
B. fragilis A22863 = assay: microbe, parasite or virus in culture; conditions: Bacteroides fragilis
E. coli A15119 [16] = assay: In vitro MIC, tube dilution in Nutrient Broth, overnight at 37° C.; format: cell-based; conditions: Escherichia coli
K. pneumoniae A-9664 [17] = assay: microbe, parasite or virus in culture; conditions: Klebsiella pneumoniae, A9664
S. aureus A-9537 = assay: In vitro MIC, tube dilution in Nutrient Broth, overnight at 37° C.; format: cell-based; conditions: Staphylococcus aureus

Compound: C[C@@H](O)[C@H]1C(=O)N2C(C(=O)O)=C(SCCN)C[C@H]12 [thienamycin]
- activity against various Pseudomonas species (Pseudomonas species): notable activity

Compound: C[C@@H](O)[C@H]1C(=O)N2C(C(=O)[O-])=C(SCC[S+]3CCCC3)C[C@H]12 [Example 1, 3-[2-(1-tetrahydrothiophenium)ethylthio]-6α-[1-(R)-hydroxyethyl]-7-oxo-1-azabicyclo[3.2.0]hept-2-ene-2-carboxylate]
- ED50 (P. mirabilis A-9900 [1]): 7.7 mg/kg
- MIC (H. influenzae A21518): 8 µg/mL (≈ 23.3 µM)
- MIC [2]: 2 µg/mL (≈ 5.82 µM)
- MIC (P. morganii A15153): 0.06 µg/mL (≈ 0.175 µM)
- MIC (H. influenzae A21522): 8 µg/mL (≈ 23.3 µM)
- MIC (S. pyogenes A-9604): 0.004 µg/mL (≈ 0.0116 µM)
- dose excreted at 3 h ([3]; 0-3 hours): 15.6%
- dose excreted at 24 h ([3]; 0-24 hours): 17.7 ± 2.9%
- dose excreted at 6 h ([3]; 3-6 hours): 2.1%
- dose excreted at 24 h ([3]; 6-24 hours): < 0.2%
- ED50 (S. marcescens A20335): 5 mg/kg
- ED50 (E. coli A15119 [4]): 1.6 mg/kg
- ED50 (E. cloacae A-9659 [5]): 1.3 mg/kg
- ED50 (K. pneumoniae A-9664 [6]): 5 mg/kg
- ED50 (P. rettgeri A15167-2): 8.7 mg/kg
- ED50 (M. morganii A15149): 3.3 mg/kg
- ED50 (P. vulgaris A21559 [7]): 3.3 mg/kg
- ED50 (P. aeruginosa A20481): 0.8 mg/kg
- ED50 (P. aeruginosa A20599): 1.3 mg/kg
- ED50 (P. aeruginosa A-9843a [8]): 0.6 mg/kg
- ED50 (S. aureus A-9606): 0.19 mg/kg
- LD50 [9]: > 40 mg/kg
- MIC (B. fragilis A22053): 0.06 µg/mL (≈ 0.175 µM)
- MIC (E. coli A20341-1; E. coli A20341-1 (10^-3)): 0.03 µg/mL (≈ 0.0873 µM)
- MIC (E. coli A20341-1; Escherichia coli, A203411, E. coli A20341-1 (10^-2)): 0.06 µg/mL (≈ 0.175 µM)
- MIC (E. coli A20341-1; Escherichia coli, A203411, E. coli A20341-1 (10^-4), read-out: MIC): 0.03 µg/mL (≈ 0.0873 µM)
- MIC (E. cloacae A-9659 [10]): 0.13 µg/mL (≈ 0.378 µM)
- MIC (S. pneumoniae A-9585): 0.002 µg/mL (≈ 0.00582 µM)
- AUC [11]: 7400 ng·h/mL
- half-life [11]: 9 min
- NOAEL (in vivo): ~5 mg/kg
- MIC (H. influenzae A-9833): 8 µg/mL (≈ 23.3 µM)
- MIC (H. influenzae A20178): 8 µg/mL (≈ 23.3 µM)
- MIC (P. mirabilis A-9900 [12]): 0.13 µg/mL (≈ 0.378 µM)
- MIC (K. pneumoniae A20468): 0.13 µg/mL (≈ 0.378 µM)
- MIC (E. cloacae A-9656): 0.13 µg/mL (≈ 0.378 µM)
- MIC (P. vulgaris A21559 [13]): 0.03 µg/mL (≈ 0.0873 µM)
- MIC [14]: 0.016 µg/mL (≈ 0.0466 µM)
- MIC (B. fragilis A22862): 0.06 µg/mL (≈ 0.175 µM)
- MIC (S. marcescens A20019): 0.06 µg/mL (≈ 0.175 µM)
- MIC (P. aeruginosa A-9843A [15]): 1 µg/mL (≈ 2.91 µM)
- MIC (S. faecalis A20688): 0.5 µg/mL (≈ 1.46 µM)
- MIC (B. fragilis A22863): 0.06 µg/mL (≈ 0.175 µM)
- MIC (E. coli A15119 [16]; A15119, E. coli A15119 (10^-2)): 0.06 µg/mL (≈ 0.175 µM)
- MIC (E. coli A15119 [16]; A15119, E. coli A15119 (10^-3)): 0.06 µg/mL (≈ 0.175 µM)
- MIC (E. coli A15119 [16]; E. coli A15119 (10^-4 dil.), read-out: MIC): 0.03 µg/mL (≈ 0.0873 µM)
- MIC (K. pneumoniae A-9664 [17]): 0.06 µg/mL (≈ 0.175 µM)
- MIC (S. aureus A-9537; A9537, S. aureus A-9537): 0.008 µg/mL (≈ 0.0233 µM)
- MIC (S. aureus A-9537; A9537, S. aureus A-9537 +50% serum): 0.03 µg/mL (≈ 0.0873 µM)
